According to article PMC6208908, “Field template-based design and biological evaluation of new sphingosine kinase 1 inhibitors” (Breast Cancer Research and Treatment, 2018):
pIC50: −log10 of the molar value. Marks after values point to notes of the source that are not given here.

Columns and labels:
[1] = molecular target: recombinant SK1 (Homo sapiens, UniProt Q9NYA1); assay: SK1 activity assay, cell-free (recombinant SK1 extract, radiolabelling); type: biochemical; settings: 1 µM compound, recombinant SK1 extract in excess, 1 µM ATP, 1 µM sphingosine, 1 h
Chain of recombinant SK1 (Q9NYA1 whole entry): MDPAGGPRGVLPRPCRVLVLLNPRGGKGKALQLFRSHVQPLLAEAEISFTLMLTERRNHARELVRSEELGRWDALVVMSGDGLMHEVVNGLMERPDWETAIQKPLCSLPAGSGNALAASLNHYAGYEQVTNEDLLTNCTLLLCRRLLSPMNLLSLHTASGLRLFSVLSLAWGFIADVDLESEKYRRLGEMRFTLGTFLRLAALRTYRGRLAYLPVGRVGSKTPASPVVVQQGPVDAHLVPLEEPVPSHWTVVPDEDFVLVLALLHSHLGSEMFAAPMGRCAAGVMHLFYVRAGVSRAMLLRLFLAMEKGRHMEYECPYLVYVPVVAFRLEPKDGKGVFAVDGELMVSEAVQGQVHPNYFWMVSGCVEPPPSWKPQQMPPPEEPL
Protocol: (§1) SK assay was performed using radiolabeling as previously described, in conditions favouring SK1 or SK2 activity as required.
The synthesised compounds were then screened for SK1 inhibition. Compounds SK-A to SK-F and SKI-II (commercial inhibitor of SK used as positive control with reported IC50 0.5 µM [14]) at 1 µM were incubated in the presence of recombinant SK1 extract (in excess), 1 µM of ATP, and exogenous 1 µM sphingosine for 1 h followed by measurement of SK1 activity.
(§2) Fig. 2 Inhibition of sphingosine kinase 1 in cell-free extract and in vitro. a 1 µM of compounds SK-A to SK-F and SKI-II (commercial inhibitor of SK used as a positive control) were incubated in the presence of recombinant SK1 extract (in excess), 1 µM of ATP, and 1 µM exogenous sphingosine for 1 h. b MDA-MB-231 cells were incubated with 1 µM of compounds SK-A to SK-F and SKI-II for 6 h. SK1 activity was measured as described in materials and methods. Columns, means of three independent experiments normalised to vehicle; bars, SEM. (ns, non-significant; *p < 0.05; **p < 0.01)
SK1 activity was determined in the presence of triton X-100 and SK2 activity was measured in the presence of high salt concentrations, conditions that favour SK1 and SK2, respectively. […] Km for SK1 was 6.97 ± 1.20 µM, Vmax 98 ± 4 µM/min/mg protein and Ki for SK-F 0.46 ± 0.1 µM. […] Some SK inhibitors such as SKI-II were previously shown to induce proteasomal degradation of SK1 [48, 49].

[2] = molecular target: T1, endogenous SK1 in MDA-MB-231 cells (Homo sapiens, UniProt Q9NYA1); assay: SK1 activity in lysates of treated MDA-MB-231 cells; type: cell-based; settings: 1 µM, 6 h
T1 construct: We treated MDA-MB-231 cells with 1 µM of compounds SK-A – SK-F and SKI-II as the positive control for 6 h; endogenous in cells; host or cells: MDA-MB-231
T1 sequence (Q9NYA1 whole entry): as above
Protocol: After incubation, cells were washed with ice-cold phosphate-buffered saline (PBS) and harvested.
as §1, §2
Reportedly, among human tumour cell lines, the breast cancer cell line MDA-MB-231 expresses high levels of SK activity. We treated MDA-MB-231 cells with 1 µM of compounds SK-A – SK-F and SKI-II as the positive control for 6 h and analysed SK1 activity in the cell lysates using SK1 activity assay.

[3] = test system: SK1 mRNA; assay: SK1 mRNA expression by qRT-PCR in MDA-MB-231 cells; type: cell-based, human; settings: 1, 2, 5 and 10 µM, 24 h
Protocol: Isolation of total RNA from MDA-MB-231 cells was performed using the RNeasy Mini kit (Qiagen, Valencia, CA, USA) as per manufacturer’s instructions. RNA quantity and purity were measured using a NanoDrop ND-1000 Spectrophotometer (Thermo Fisher Scientific, Loughborough, UK). Reverse transcription was performed using precision nanoScript™ reverse transcription kit (PrimerDesign Ltd, Southampton, UK). qRT-PCR was done as already described. Ct values were exported and analysed using qbase software (Biogazelle NV, Zwijnaarde, Belgium).
Fig. 3 Effect of compounds SK-A to SK-F on SK1 mRNA levels. MDA-MB-231 cells were incubated with 1, 2, 5 and 10 µM of compounds SK-A to SK-F for 24 h. SK1 mRNA expression was measured by qRT-PCR. Columns, means of three independent experiments normalised to control; bars, SEM. (*p < 0.05; **p < 0.01)

[4] = test system: SK1 protein; assay: SK1 protein level (Figure S9); type: cell-based
[5] = test system: MDA-MB-231 cells; assay: MTT cell viability / proliferation assay; type: cell-based, human; settings: 1, 2, 5 and 10 µM, up to 120 h
Protocol: Cellular viability was measured using the 3-(4,5-dimethylthiazol-2-yl)-2,5-diphenyltetrazolium bromide (MTT; 5 mg/ml) colorimetric assay as already described.
Fig. 4 Effect of compounds SK-A to SK-F on breast cancer cell viability. MDA-MB-231 cells were incubated with 1, 2, 5 and 10 µM of compounds SK-A to SK-F for up to 120 h. Cell proliferation was measured using MTT assay. Columns, means of three independent experiments normalised to control; bars, SEM. (*p < 0.05; **p < 0.01; ^§p < 0.001). IC50 levels for SK-F for 72, 96 and 120 h were 7, 4.5 and 3 µM, respectively

[6] = test system: SK; set-up: method as in PMID 14522923; settings: commercial inhibitor of SK, positive control; read-out: reported IC50; cited from earlier work
[7] = test system: 4T1 breast cancer allografts; assay: 4T1 breast cancer allograft, tumour volume; type: in vivo, BALB/c nude mice; settings: 5 mg/kg each drug i.p. twice a week for 2 weeks; control 468 mm^3
Protocol: Breast cancer allografts were established in 6–8-week-old BALB/c nude mice by injection of 10^6 4T1 cells into their mammary pad. Two weeks after implantation, mice were randomised into treatment groups (n = 6/group) and treated twice a week for 2 weeks with intraperitoneal injections of dimethyl sulfoxide (DMSO), 5 mg/kg DTX, 5 mg/kg SK-F, 5 mg/kg DTX + 5 mg/kg SK-F. One day after the last treatment, all mice were euthanized and blood was collected. Tumour long and short radii were measured using calipers and tumour volume (v) was calculated using the formula v = 4/3 πab^2 (a – long radius, b – short radius). Mice and individual organs were weighed and primary tumours were then processed for analysis of SK1 activity as described above. Full blood count and liver function test analysis was done in the Hammersmith hospital biochemical lab. […]
(§3) Fig. 5 Effect of compound SK-F on breast tumour growth and SK1 activity. […] Two weeks after implantation, mice were randomised into treatment groups (n = 6/group) and treated twice a week for 2 weeks with intraperitoneal injections of: DMSO, 5 mg/kg DTX, 5 mg/kg SK-F, 5 mg/kg DTX + 5 mg/kg SK-F. a Tumour volume in the different treatment groups of 4T1 breast cancer implanted in mouse mammary fat pad. b SK1 activity in tumours was measured using radiolabelling. […]

[8] = molecular target: T2, tumour SK1 (Mus musculus, UniProt Q8CI15); assay: SK1 activity in 4T1 allograft tumours; type: in vivo, BALB/c nude mice; settings: 5 mg/kg each drug i.p. twice a week for 2 weeks
T2 construct: primary tumours were then processed for analysis of SK1 activity as described above; from tissue; host or cells: 4T1 breast tumour allografts from BALB/c nude mice
T2 sequence (Q8CI15 whole entry): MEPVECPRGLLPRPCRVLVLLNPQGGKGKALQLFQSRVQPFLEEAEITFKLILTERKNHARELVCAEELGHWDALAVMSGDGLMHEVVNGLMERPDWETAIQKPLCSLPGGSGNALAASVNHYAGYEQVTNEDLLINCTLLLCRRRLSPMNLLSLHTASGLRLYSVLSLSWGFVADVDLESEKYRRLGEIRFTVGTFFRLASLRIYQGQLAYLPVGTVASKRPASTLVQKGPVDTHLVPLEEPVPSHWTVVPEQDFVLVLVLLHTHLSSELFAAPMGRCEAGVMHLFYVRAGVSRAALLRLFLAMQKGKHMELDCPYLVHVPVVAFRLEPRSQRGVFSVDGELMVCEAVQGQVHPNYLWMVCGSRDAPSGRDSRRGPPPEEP
Protocol: (§4) Breast cancer allografts were established in 6–8-week-old BALB/c nude mice by injection of 10^6 4T1 cells into their mammary pad. Two weeks after implantation, mice were randomised into treatment groups (n = 6/group) and treated twice a week for 2 weeks with intraperitoneal injections of dimethyl sulfoxide (DMSO), 5 mg/kg DTX, 5 mg/kg SK-F, 5 mg/kg DTX + 5 mg/kg SK-F. One day after the last treatment, all mice were euthanized and blood was collected. Tumour long and short radii were measured using calipers and tumour volume (v) was calculated using the formula v = 4/3 πab^2 (a – long radius, b – short radius). Mice and individual organs were weighed and primary tumours were then processed for analysis of SK1 activity as described above. Full blood count and liver function test analysis was done in the Hammersmith hospital biochemical lab.
as §3

[9] = Whole-body toxicity: body and organ weights, full blood count; type: in vivo, BALB/c nude mice; settings: 5 mg/kg each drug i.p. twice a week for 2 weeks, 4T1 tumour-bearing mice
Protocol: as §4
Tumour-bearing mice were divided into four groups (n = 6) and injected with: DMSO, 5 mg/kg DTX, 5 mg/kg SK-F, 5 mg/kg DTX + 5 mg/kg SK-F. Two weeks after the tumour cells inoculation, we began intraperitoneal injections of drug preparations and continued these twice a week for two weeks. Based on our previous studies, we have chosen relatively smaller doses of SK-F and DTX in order to investigate their combined effect and potential chemosensitisation of breast tumours to taxane therapies. In the control group, tumours grew progressively and rapidly (Fig. 5a). […] Five mg/kg DTX has induced a significant reduction in tumour volume to 281 mm^3. The biggest reduction in tumour volume to 159 mm^3 was observed when DTX was combined with SK-F (Fig. 5a). […] We have further investigated the effects of the used treatments on mouse whole-body toxicity. DTX has reduced body and liver weight, while SK-F had no significant effect (Table 1). DTX has induced significant anaemia and leukopenia, while the effects of SK-F were very moderate. In all cases, the effects of combined therapy were similar to DTX alone (Table 1). Liver function test was performed as a surrogate marker for chemotherapy-induced liver damage (Fig. 6). […] The combination therapy had similar toxicity profile to DTX alone, while exerting higher antitumour efficacy (Fig. 5a).

[10] = Liver function tests in treated mice; type: in vivo, BALB/c nude mice; settings: 5 mg/kg i.p. twice a week for 2 weeks
Protocol: as §4
Fig. 6 Liver function tests of mice treated with SK-F and docetaxel (DTX). Breast cancer allografts were established in BALB/c nude mice by injection of 4T1 cells into their mammary pad. Two weeks after implantation, mice were randomised into treatment groups (n = 6/group) and treated twice a week for two weeks with intraperitoneal injections of: DMSO, 5 mg/kg DTX, 5 mg/kg SK-F, 5 mg/kg DTX + 5 mg/kg SK-F. a Alanine transaminases (ALT). b Bilirubin. c Aspartate transaminase (AST). d Albumin. e Alkaline phosphatase (ALP). f Total protein. Columns, mean of n = 6 animals normalised to control; bars, SEM. (*p < 0.05; **p < 0.01)

CCCCCCCCc1ccc(NC(=O)C2CCNCC2)cc1 [SK-C]
inhibition of SK1 activity in cell-free settings [1]: ineffective | SK1 activity in cells versus vehicle [2]: significantly decreased | effect on SK1 mRNA expression [3]: reduction in SK1 mRNA | decrease in SK1 protein [4]: 75% | effect on MDA-MB-231 cancer cell proliferation [5]: highest effect

Oc1ccc(Nc2nc(-c3ccc(Cl)cc3)cs2)cc1 [SKI-II, reference compound]
effect on SK1 mRNA expression [3]: minimal effect | effect on SK1 protein [4]: significant decrease | pIC50 [6]: 6.30

CCCCCCCCc1ccc(NC(=O)c2cccc(Cl)c2)cc1 [SK-E]
inhibition of SK1 activity in cell-free settings [1]: statistically significant inhibition | SK1 activity in cells versus vehicle [2]: significantly decreased

CC(=O)O[C@@]12CO[C@@H]1C[C@H](O)[C@@]1(C)C(=O)[C@H](O)C3=C(C)[C@@H](OC(=O)[C@H](O)[C@@H](NC(=O)OC(C)(C)C)c4ccccc4)C[C@@](O)([C@@H](OC(=O)c4ccccc4)[C@H]21)C3(C)C [DTX, docetaxel, reference compound]
tumour volume at the end of the study [7]: 281 mm^3 | tumour SK1 activity [8]: no effect | Hb [9]: 65 ± 7 % of control ± SEM | WCC [9]: 54 ± 4 % of control ± SEM | Weight of Body [9]: 86 ± 7 % of control ± SEM | Weight of Kidney [9]: 97 ± 5.9^a % of control ± SEM | Weight of Liver [9]: 85.3 ± 11.4^a % of control ± SEM | Weight of Lungs [9]: 99.4 ± 4.a % of control ± SEM | Weight of Spleen [9]: 91.3 ± 15.4^a % of control ± SEM | alanine transaminases (ALT) [10]: significant increases | alkaline phosphatase (ALP) [10]: milder increase | aspartate transaminase (AST) [10]: significant increases
